Test results as given in patent publication US20260078239A1, “USE OF AN ANTIOXIDANT FOR REDUCING AND/OR PREVENTING THE TOXICITY OF A RUBBER COMPOSITION” (NYCO, priority 2022, published 2026).

Key:
[1] = test system: whole adult planarians; conditions: 0.22-22 mg/L, 12 days, control points at 7 and 12 days; for Concentration above which behavioral problems potentially linked to cognitive problems in the planarian are observed: adhesion, speed of movement, rest, phototaxis, scrunching
[2] = hazard statements in words; cited from earlier work

SMILES | Concentration above which significant mortality of planarian is observed according to Zhang et al., Neurotoxicology and Teratology, 2019 [1] [mg/L] | Concentration above which behavioral problems potentially linked to cognitive problems in the planarian are observed [1] [ng/mL] | Toxicity (confirmed toxicity, ECHA substance information) [2]
c1ccc(Nc2cccc3ccccc23)cc1 [Example 19, N-phenylnaphthalene-1-amine] | 6.9 | 2200 to 3900 | –
CC(C)(C)c1cc(Cc2cc(C(C)(C)C)c(O)c(C(C)(C)C)c2)cc(C(C)(C)C)c1O [Example 3, 4,4′-Methylene-bis-(2,6-di-tert-butylphenol)] | – | – | Under evaluation as an endocrine
c1ccc(Nc2ccc(NC3CCCCC3)cc2)cc1 [CPPD, N-cyclohexyl-N′-phenyl-p-phenylenediamine] | – | – | Is toxic to aquatic life with long-term
c1ccc(Nc2ccc(Nc3ccccc3)cc2)cc1 [DPPD, N,N′-diphenyl-p-phenylenediamine] | – | – | Is harmful to aquatic life with long-term
CC(C)CC(C)Nc1ccc(Nc2ccccc2)cc1 (centres unmarked) [Example 22, N-(1,3-Dimethylbutyl)-N′-phenyl-p-phenylenediamine] | 4.8 | 1500 | Harms fertility or has a negative impact
